In patent publication US9884063B2, “Amido-substituted azole compounds” (Bayer Pharma Aktiengesellschaft, priority 2014, dated 2018):

target: T1, TNKS1 (Homo sapiens, UniProt O95271); experiment: Modified TNKS1 Assay 3 (BPS kit #80573, biotin-NAD+, 96 well); assay type: biochemical; conditions: human TNKS1, BPS kit #80573, 96 well
T1 sequence (O95271 1-1327): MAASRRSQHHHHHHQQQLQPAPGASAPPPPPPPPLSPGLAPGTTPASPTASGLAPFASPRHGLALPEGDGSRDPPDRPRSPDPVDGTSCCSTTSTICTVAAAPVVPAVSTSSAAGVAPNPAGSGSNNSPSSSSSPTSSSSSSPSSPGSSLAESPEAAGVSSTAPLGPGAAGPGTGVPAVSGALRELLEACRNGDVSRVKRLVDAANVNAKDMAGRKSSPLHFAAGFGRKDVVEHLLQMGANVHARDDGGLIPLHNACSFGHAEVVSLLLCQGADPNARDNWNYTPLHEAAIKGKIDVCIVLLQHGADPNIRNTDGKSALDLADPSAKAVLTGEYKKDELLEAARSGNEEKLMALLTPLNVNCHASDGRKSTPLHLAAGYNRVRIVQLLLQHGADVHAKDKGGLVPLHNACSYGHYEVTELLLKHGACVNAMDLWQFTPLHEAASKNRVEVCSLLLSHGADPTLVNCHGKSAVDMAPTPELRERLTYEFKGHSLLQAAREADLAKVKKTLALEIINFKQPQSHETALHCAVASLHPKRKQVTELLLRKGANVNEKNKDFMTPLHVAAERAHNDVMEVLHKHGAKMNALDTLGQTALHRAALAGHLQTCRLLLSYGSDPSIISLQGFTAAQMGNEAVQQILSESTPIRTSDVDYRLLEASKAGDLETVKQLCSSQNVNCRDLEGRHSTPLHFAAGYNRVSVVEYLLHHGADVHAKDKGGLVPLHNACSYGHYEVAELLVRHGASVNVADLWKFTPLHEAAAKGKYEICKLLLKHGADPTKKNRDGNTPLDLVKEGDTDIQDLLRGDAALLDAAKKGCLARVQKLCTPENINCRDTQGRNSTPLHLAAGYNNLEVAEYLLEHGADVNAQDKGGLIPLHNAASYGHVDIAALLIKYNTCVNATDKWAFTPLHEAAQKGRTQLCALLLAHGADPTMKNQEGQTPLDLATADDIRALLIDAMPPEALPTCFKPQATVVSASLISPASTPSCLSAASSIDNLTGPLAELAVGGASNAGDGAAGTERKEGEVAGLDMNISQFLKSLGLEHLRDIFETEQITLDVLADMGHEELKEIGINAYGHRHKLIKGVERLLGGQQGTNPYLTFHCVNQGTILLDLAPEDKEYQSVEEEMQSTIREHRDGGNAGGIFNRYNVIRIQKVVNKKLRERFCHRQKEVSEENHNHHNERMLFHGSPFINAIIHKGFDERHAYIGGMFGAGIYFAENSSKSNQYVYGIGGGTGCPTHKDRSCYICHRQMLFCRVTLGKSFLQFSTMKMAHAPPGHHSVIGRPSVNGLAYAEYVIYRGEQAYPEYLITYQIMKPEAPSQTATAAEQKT
Method: The potency of the compounds against human TNKS1 according to the invention was assessed using a commercially available biotin/streptavidin binding assay kits from BPS Bioscience, San Diego, USA (Catalog #80573 for TNKS1). The incorporation of a biotin-labeled NAD+ during the […] catalyzed ribosylation of a suitable protein substrate was detected using with a streptavidin-HRP coupled chemi-luminescent readout. The intensity of the readout signal is proportional to the incorporated NAD^+. Inhibition of TNKS1 leads to a decreased incorporation of NAD^+ and consequently to a lower readout signal intensity in the corresponding TNKS1 assays. The concentration of a test compound that inhibits the enzyme activity by 50% (corresponds to half of the normed readout signal intensity) is reported as IC50. The assay was conducted in a 96 well MTP format according to the manufacturer's protocol and using a BMG Pherastar MTP reader [BMG-Labtech, Offenburg, Germany].

Compound	IC50 [nM]
CNC(=O)c1nc[nH]c1C(=O)Nc1ccc(NC(=O)c2ccc(F)cc2Cl)cc1 [Example 12, N^5-{4-[(2-chloro-4-fluorobenzoyl)amino]phenyl}-N^4-methyl-1H-imidazole-4,5-dicarboxamide]	260
O=C(Nc1ccc(NC(=O)c2[nH]cnc2C(=O)NCC(F)(F)F)cc1)c1ccc(F)cc1Cl [Example 30, N^4-{4-[(2-chloro-4-fluorobenzoyl)amino]phenyl}-N^5-(2,2,2-trifluoroethyl)-1H-imidazole-4,5-dicarboxamide]	400
CNC(=O)c1nc[nH]c1C(=O)Nc1ccc(NC(=O)c2c(F)cc(F)cc2Cl)cc1 [Example 118, N^5-{4-[(2-chloro-4,6-difluorobenzoyl)amino]phenyl}-N^4-methyl-1H-imidazole-4,5-dicarboxamide]	> 500
NC(=O)c1nc[nH]c1C(=O)Nc1ccc(NC(=O)c2ccc(F)cc2Cl)cc1 [Example 121]	> 500
O=C(Nc1ccc(NC(=O)c2nc[nH]c2C(=O)NC2CCOC2)cc1)c1ccc(F)cc1Cl (centres unmarked) [Example 236, N^4-{4-[(2-chloro-4-fluorobenzoyl)amino]phenyl}-N^5-(tetrahydrofuran-3-yl)-1H-imidazole-4,5-dicarboxamide]	430
CNC(=O)c1nc[nH]c1C(=O)Nc1ccc(NC(=O)c2cc(F)c(F)cc2Cl)cc1 [Example 242, N^5-{4-[(2-chloro-4,5-difluorobenzoyl)amino]phenyl}-N^4-methyl-1H-imidazole-4,5-dicarboxamide]	380

The next compounds have a lower IC50 than those just listed; values first:

IC50 [nM]	Compound
150	COCCNC(=O)c1[nH]cnc1C(=O)Nc1ccc(NC(=O)c2ccc(F)cc2Cl)cc1 [Example 130, N^4-{4-[(2-chloro-4-fluorobenzoyl)amino]phenyl}-N^5-(2-methoxyethyl)-1H-imidazole-4,5-dicarboxamide]
150	CNC(=O)c1nc[nH]c1C(=O)Nc1ccc(NC(=O)c2ccc(C)cc2Cl)cc1 [Example 244, N^5-{4-[(2-chloro-4-methylbenzoyl)amino]phenyl}-N^4-methyl-1H-imidazole-4,5-dicarboxamide]
130	CNC(=O)c1nc[nH]c1C(=O)Nc1ccc(NC(=O)c2ccc(F)cc2Cl)nc1 [Example 16, N^5-{6-[(2-chloro-4-fluorobenzoyl)amino]pyridin-3-yl}-N^4-methyl-1H-imidazole-4,5-dicarboxamide]
40	CC1CCCN(CCNC(=O)c2[nH]cnc2C(=O)Nc2ccc(NC(=O)c3ccc(F)cc3Cl)cc2)C1 (centres unmarked) [Example 208, N^4-{4-[(2-chloro-4-fluorobenzoyl)amino]phenyl}-N^5-[2-(3-methylpiperidin-1-yl)ethyl]-1H-imidazole-4,5-dicarboxamide]
40	O=C(Nc1ccc(NC(=O)c2nc[nH]c2C(=O)NCCN2CCCC(F)C2)cc1)c1ccc(F)cc1Cl (centres unmarked) [Example 226, N^4-{4-[(2-chloro-4-fluorobenzoyl)amino]phenyl}-N^5-[2-(3-fluoropiperidin-1-yl)ethyl]-1H-imidazole-4,5-dicarboxamide]
20	CNC(=O)c1nc[nH]c1C(=O)Nc1ccc(NC(=O)c2cc(OC)c(OC)cc2Cl)cc1 [Example 240, N^5-{4-[(2-chloro-4,5-dimethoxybenzoyl)amino]phenyl}-N^4-methyl-1H-imidazole-4,5-dicarboxamide]
3	O=C(Nc1ccc(NC(=O)c2nc[nH]c2C(=O)NCCN2CCCCC2)cc1)c1ccc(F)cc1Br [Example 216, N^4-{4-[(2-bromo-4-fluorobenzoyl)amino]phenyl}-N^5-[2-(piperidin-1-yl)ethyl]-1H-imidazole-4,5-dicarboxamide]
2	CC1CCN(CCNC(=O)c2nc[nH]c2C(=O)Nc2ccc(NC(=O)c3ccc(F)cc3Cl)cc2)CC1 [Example 126, N^5-{4-[(2-chloro-4-fluorobenzoyl)amino]phenyl}-N^4-[2-(4-methylpiperidin-1-yl)ethyl]-1H-imidazole-4,5-dicarboxamide]
